Data taken from the NIST ThermoML archive (doi:10.1016/j.tca.2013.03.010).
± gives the expanded uncertainty stated by the source.

Key:
[1] = xn = mol fraction of the nth substance listed; details: 101 kPa, Liquid; for viscosity: Capillary tube (Ostwald / Ubbelohde) method; for mass density: Vibrating tube method
[2] = 101 kPa, Liquid; for viscosity: Capillary tube (Ostwald / Ubbelohde) method; for mass density: Vibrating tube method

CC(O)CO (stereo not given) [1,2-propanediol] + OCCCO
[1], x1 = 1
Details | mass density [kg/m3] | viscosity [mPa·s]
298.15 K | 1032.7 ± 0.2 | 44.78 ± 0.2
303.15 K | 1028.8 ± 0.2 | 33.75 ± 0.15
308.15 K | 1025.2 ± 0.2 | 27 ± 0.12

CC(O)CO (stereo not given) [1,2-propanediol]
[2]
Details | mass density [kg/m3] | viscosity [mPa·s]
298.15 K | 1032.7 ± 0.2 | 44.78 ± 0.2
303.15 K | 1028.8 ± 0.2 | 33.75 ± 0.15
308.15 K | 1025.2 ± 0.2 | 27 ± 0.12

OCCO [1,2-ethanediol]
[2]
Details | mass density [kg/m3] | viscosity [mPa·s]
298.15 K | – | 16.87 ± 0.18
303.15 K | 1106 ± 1.1 | 13.59 ± 0.15
308.15 K | – | 11.34 ± 0.12

CC(O)CO (stereo not given) [1,2-propanediol] + OCCO
[1]
Details | mass density, 298.15 K [kg/m3] | mass density, 303.15 K [kg/m3] | mass density, 308.15 K [kg/m3] | viscosity, 298.15 K [mPa·s] | viscosity, 303.15 K [mPa·s] | viscosity, 308.15 K [mPa·s]
x2 = 0 | 1032.7 ± 0.2 | 1028.8 ± 0.2 | 1025.2 ± 0.2 | 44.78 ± 0.2 | 33.75 ± 0.15 | 27 ± 0.12
x2 = 0.1208 | 1041 ± 0.2 | 1036.9 ± 0.2 | 1033.3 ± 0.2 | 42.41 ± 0.21 | 32.1 ± 0.16 | 25.65 ± 0.13
x2 = 0.2353 | 1048.6 ± 0.3 | 1044.6 ± 0.3 | 1041 ± 0.3 | 40.03 ± 0.22 | 30.14 ± 0.17 | 24.13 ± 0.13
x2 = 0.3454 | 1056.1 ± 0.3 | 1052.1 ± 0.3 | 1048.5 ± 0.3 | 37.28 ± 0.23 | 28.08 ± 0.17 | 22.51 ± 0.14
x2 = 0.4345 | 1062.3 ± 0.3 | 1058.4 ± 0.3 | 1054.7 ± 0.3 | 34.74 ± 0.23 | 26.24 ± 0.18 | 21.05 ± 0.14
x2 = 0.5508 | 1070.8 ± 0.4 | 1066.9 ± 0.4 | 1063.4 ± 0.4 | 31.35 ± 0.23 | 23.8 ± 0.18 | 19.11 ± 0.14
x2 = 0.6303 | 1077 ± 0.5 | 1073.1 ± 0.5 | 1069.5 ± 0.5 | 28.91 ± 0.23 | 22.06 ± 0.18 | 17.78 ± 0.14
x2 = 0.7473 | 1086.6 ± 0.6 | 1082.7 ± 0.6 | 1079.2 ± 0.6 | 25.33 ± 0.23 | 19.52 ± 0.18 | 15.82 ± 0.14
x2 = 0.8302 | 1093.7 ± 0.8 | 1089.8 ± 0.8 | 1086.4 ± 0.8 | 22.72 ± 0.22 | 17.62 ± 0.17 | 14.39 ± 0.14
x2 = 0.9065 | 1100.6 ± 0.9 | 1096.8 ± 0.9 | 1093.4 ± 0.9 | 20.16 ± 0.2 | 15.86 ± 0.16 | 13.07 ± 0.13

OCCCO [propan-1,3-diol] + CC(O)CO
[1]
Details | mass density, 298.15 K [kg/m3] | mass density, 303.15 K [kg/m3] | mass density, 308.15 K [kg/m3] | viscosity, 298.15 K [mPa·s] | viscosity, 303.15 K [mPa·s] | viscosity, 308.15 K [mPa·s]
x2 = 0 | 1049.6 ± 0.9 | 1046.2 ± 0.9 | 1043.1 ± 0.9 | 41.36 ± 0.45 | 32.78 ± 0.36 | 26.34 ± 0.29
x2 = 0.1002 | 1049.1 ± 0.8 | 1046 ± 0.8 | 1043 ± 0.8 | 41.77 ± 0.42 | 32.93 ± 0.33 | 26.45 ± 0.27
x2 = 0.2105 | 1048.3 ± 0.6 | 1045.6 ± 0.6 | 1042.8 ± 0.6 | 42.23 ± 0.39 | 33.12 ± 0.31 | 26.56 ± 0.25
x2 = 0.2994 | 1047.8 ± 0.5 | 1045.1 ± 0.5 | 1042.2 ± 0.5 | 42.59 ± 0.36 | 33.26 ± 0.28 | 26.66 ± 0.23
x2 = 0.4088 | 1046.9 ± 0.4 | 1044.1 ± 0.4 | 1041 ± 0.4 | 43.02 ± 0.33 | 33.43 ± 0.26 | 26.75 ± 0.21
x2 = 0.5002 | 1045.9 ± 0.4 | 1043 ± 0.4 | 1039.9 ± 0.4 | 43.38 ± 0.31 | 33.56 ± 0.24 | 26.84 ± 0.19
x2 = 0.5937 | 1044.7 ± 0.3 | 1041.7 ± 0.3 | 1038.5 ± 0.3 | 43.73 ± 0.28 | 33.66 ± 0.22 | 26.91 ± 0.18
x2 = 0.7125 | 1042.6 ± 0.3 | – | – | 44.08 ± 0.25 | 33.73 ± 0.2 | 26.94 ± 0.16
x2 = 0.7126 | – | 1039.3 ± 0.3 | 1036 ± 0.3 | – | – | –
x2 = 0.7996 | 1040.2 ± 0.2 | 1036.7 ± 0.2 | 1033.5 ± 0.2 | 44.31 ± 0.23 | 33.75 ± 0.18 | 26.96 ± 0.14
x2 = 0.9217 | 1036.5 ± 0.2 | 1033 ± 0.2 | 1029.7 ± 0.2 | 44.62 ± 0.21 | 33.76 ± 0.16 | 26.99 ± 0.13

OCCCO [propan-1,3-diol]
[2]
Details | mass density [kg/m3] | viscosity [mPa·s]
298.15 K | 1049.6 ± 0.9 | 41.36 ± 0.45
303.15 K | 1046.2 ± 0.9 | 32.78 ± 0.36
308.15 K | 1043.1 ± 0.9 | 26.34 ± 0.29

OCCCO [propan-1,3-diol] + OCCO
[1]
Details | mass density, 298.15 K [kg/m3] | mass density, 303.15 K [kg/m3] | mass density, 308.15 K [kg/m3] | viscosity, 298.15 K [mPa·s] | viscosity, 303.15 K [mPa·s] | viscosity, 308.15 K [mPa·s]
x2 = 0 | 1049.6 ± 0.9 | 1046.2 ± 0.9 | 1043.1 ± 0.9 | 41.36 ± 0.45 | 32.78 ± 0.36 | 26.34 ± 0.29
x2 = 0.1107 | 1055.3 ± 1 | 1051.7 ± 0.9 | 1048.5 ± 0.9 | 39.55 ± 0.43 | 31.2 ± 0.34 | 24.94 ± 0.27
x2 = 0.2024 | 1060.1 ± 1 | 1056.5 ± 1 | 1053.1 ± 0.9 | 37.7 ± 0.41 | 29.75 ± 0.32 | 23.7 ± 0.26
x2 = 0.3597 | 1069.3 ± 1 | 1065.7 ± 1 | 1061.9 ± 1 | 34.33 ± 0.37 | 26.96 ± 0.29 | 21.43 ± 0.23
x2 = 0.4617 | 1075.7 ± 1 | 1072 ± 1 | 1068.1 ± 1 | 31.96 ± 0.35 | 25.06 ± 0.27 | 19.91 ± 0.22
x2 = 0.551 | 1081.4 ± 1 | 1077.6 ± 1 | 1073.6 ± 1 | 29.75 ± 0.32 | 23.32 ± 0.25 | 18.56 ± 0.2
x2 = 0.6258 | 1086.2 ± 1 | 1082.3 ± 1 | 1078.3 ± 1 | 27.76 ± 0.3 | 21.77 ± 0.24 | 17.39 ± 0.19
x2 = 0.7354 | 1093.1 ± 1 | 1089.2 ± 1 | 1085.2 ± 1 | 24.77 ± 0.27 | 19.45 ± 0.21 | 15.66 ± 0.17
x2 = 0.8285 | 1099.1 ± 1 | 1095.2 ± 1 | 1091.1 ± 1 | 22.09 ± 0.24 | 17.39 ± 0.19 | 14.15 ± 0.15
x2 = 0.9105 | 1104.5 ± 1.1 | 1100.7 ± 1 | 1096.5 ± 1 | 19.62 ± 0.21 | 15.64 ± 0.17 | 12.82 ± 0.14

OCCO [1,2-ethanediol] + CC(O)CO
[1], x1 = 1
Details | mass density [kg/m3] | viscosity [mPa·s]
298.15 K | – | 16.87 ± 0.18
303.15 K | 1106 ± 1.1 | 13.59 ± 0.15
308.15 K | – | 11.34 ± 0.12

OCCO [1,2-ethanediol] + OCCCO
[1], x1 = 1
Details | mass density [kg/m3] | viscosity [mPa·s]
298.15 K | – | 16.87 ± 0.18
303.15 K | 1106 ± 1.1 | 13.59 ± 0.15
308.15 K | – | 11.34 ± 0.12
